What was measured:
Homo sapiens [1] = species: Homo sapiens; assay: (§1) Selectivity index, ratio of inhibition of full length human MKK7 (M1 to R419 residues) expressed in mammalian expression system assessed as residual percent of control binding at 100 nM relative to control to inhibition of partial length human MKK4 (S84 to D399 residues) expressed in mammalian expression system assessed as residual percent of control binding at 100 nM relative to control
Homo sapiens [2] = species: Homo sapiens; assay: as §1, with “JNK1” for “MKK7”, “Q384” for “R419”
Homo sapiens [3] = species: Homo sapiens; assay: Selectivity index, ratio of inhibition of B-raf (unknown origin) to inhibition of partial length human MKK4 (S84 to D399 residues) expressed in mammalian expression system assessed as residual percent of control binding at 100 nM relative to control

SMILES	Selectivity ratio (Homo sapiens [1])	Selectivity ratio (Homo sapiens [2])	Selectivity ratio (Homo sapiens [3])
CCCS(=O)(=O)Nc1ccc(F)c(C(=O)c2ccc3[nH]c4ncc(-c5ccc(OCC(O)CO)cc5)cc4c3c2)c1F (configuration not stated)	> 30	> 30	> 30
CCCS(=O)(=O)Nc1ccc(F)c(C(=O)c2ccc3[nH]c4ncc(-c5ccc(S(=O)(=O)NCC(O)CO)nc5)cc4c3c2)c1F (configuration not stated)	> 30	> 30	> 30
CCCS(=O)(=O)Nc1ccc(F)c(C(=O)c2ccc3[nH]c4ncc(-c5ccncc5)cc4c3c2)c1F	> 30	> 30	> 30
CCCS(=O)(=O)Nc1ccc(F)c(C(=O)c2ccc3[nH]c4ncc(-c5ccc(C(=O)NCC(O)CO)nc5)cc4c3c2)c1F (configuration not stated)	> 30	> 30	> 30
CCCS(=O)(=O)Nc1ccc(F)c(C(=O)c2ccc3[nH]c4ncc(-c5ccc(-c6nnn[nH]6)cc5)cc4c3c2)c1F	> 30	> 30	> 30
CCCS(=O)(=O)Nc1cccc(C(=O)c2ccc3[nH]c4ncc(Cl)cc4c3c2)c1F	> 30	> 30	> 30
CS(=O)(=O)Nc1c(F)ccc(C(=O)c2ccc3[nH]c4ncc(Cl)cc4c3c2)c1F	> 30	> 30	> 30
CCCS(=O)(=O)Nc1ccc(F)c(C(=O)c2ccc3[nH]c4ncc(Cl)cc4c3c2)c1F	> 30	> 30	> 30

Continued, values first:

Selectivity ratio (Homo sapiens [1])	Selectivity ratio (Homo sapiens [2])	Selectivity ratio (Homo sapiens [3])	SMILES
> 30	> 30	> 30	CCS(=O)(=O)Nc1ccc(F)c(C(=O)c2ccc3[nH]c4ncc(-c5ccc(S(N)(=O)=O)cc5)cc4c3c2)c1F
> 30	> 30	> 30	CCCS(=O)(=O)Nc1ccc(F)c(C(=O)c2ccc3[nH]c4ncc(-c5ccc(N)nc5)cc4c3c2)c1F
> 30	> 30	> 30	CCCS(=O)(=O)Nc1ccc(F)c(C(=O)c2ccc3[nH]c4ncc(-c5ccc(S(N)(=O)=O)cc5)cc4c3c2)c1F
> 30	> 30	> 30	CCCS(=O)(=O)Nc1ccc(F)c(C(=O)c2ccc3[nH]c4ncc(-c5ccc(C(N)=O)cc5)cc4c3c2)c1F
> 30	> 30	> 30	CS(=O)(=O)Nc1ccc(F)c(C(=O)c2ccc3[nH]c4ncc(-c5ccc(S(N)(=O)=O)cc5)cc4c3c2)c1F
> 30	> 30	> 30	CCCS(=O)(=O)Nc1ccc(F)c(C(=O)c2ccc3[nH]c4ncc(-c5ccc(C(=O)O)cc5)cc4c3c2)c1F

Source: ChEMBL document CHEMBL4742403, “Tricyclic protein kinase inhibitors for promoting liver regeneration or reducing or preventing hepatocyte death” (2019)
